Experimental data from patent US20030013660A1, “Dioxolane analogs for improved inter-cellular delivery” (Shire BioChem Inc., priority 2000, published 2003).
Where two headings read alike, the source gives them in different places.

Tests used:
Assay in all cases: 3H-TdR (3H-thymidine) incorporation assay at 72 hr
SF-268 = format: cell-based, Human; conditions: 3H-TdR incorporation at 72 hr
CCRF-CEM = format: cell-based; conditions: 3H-TdR incorporation at 72 hr
Procedure: (§1) Table of IC50 Values (μM) for Controls
(§2) Exposition of 24 hr to drug, wash, incubated for another 48 hr (total of 72 hr assay)
(§3) (3H-Thymidine Incorporation Assay)

CEM/dCK- = format: cell-based; conditions: for IC50: deoxycytidine kinase-deficient CCRF-CEM; for Factor* (Resistance Factor = Ratio of dCK- on Wild-type CCRF-CEM): ratio of IC50 CEM/dCK- to CCRF-CEM, 24 h
Procedure: as §1, §2, §3

MCF-7 = format: cell-based, Human; conditions: 3H-TdR incorporation at 72 hr
H-460 = format: cell-based, Human; conditions: 3H-TdR incorporation at 72 hr
[1] = Homo sapiens, SF-268, read-out: IC50 SF-268 24 h, 24 h drug exposure, wash, another 48 hr
[2] = Homo sapiens, CCRF-CEM, read-out: IC50 CCRF-CEM 24 h, 24 h drug exposure, wash, another 48 hr
[3] = Homo sapiens, CCRF-CEM, read-out: IC50 CEM/dCK- 24 h, 24 h drug exposure, wash, another 48 hr
[4] = Homo sapiens, MCF7, read-out: IC50 MCF-7 24 h, 24 h drug exposure, wash, another 48 hr
[5] = Homo sapiens, NCI-H460, read-out: IC50 H-460 24 h, 24 h drug exposure, wash, another 48 hr
[6] = read-out: IC50 SF-268 24 h, 24 h drug exposure, wash, another 48 hr
[7] = read-out: IC50 CCRF-CEM 24 h, 24 h drug exposure, wash, another 48 hr
[8] = read-out: IC50 H-460 24 h, 24 h drug exposure, wash, another 48 hr
[9] = read-out: IC50 CEM/dCK- 24 h, 24 h drug exposure, wash, another 48 hr

Structure (SMILES) | IC50 (SF-268; [1]) | IC50 (CCRF-CEM; [2]) | IC50 (CEM/dCK-; [3]) | Factor* (Resistance Factor = Ratio of dCK- on Wild-type CCRF-CEM) (CEM/dCK-) | IC50 (MCF-7; [4]) | IC50 (H-460; [5]) | IC50 (MCF-7; read-out: IC50 MCF-7 24 h, 24 h drug exposure, wash, another 48 hr, bis trifluoroacetate salt) | IC50 (H-460; read-out: IC50 H-460 24 h, 24 h drug exposure, wash, another 48 hr, bis trifluoroacetate salt) | IC50 (SF-268; [6]) | IC50 (CCRF-CEM; [7]) | IC50 (H-460; [8]) | IC50 (CEM/dCK-; [9])
CCC(C)(C)OC(C)OC[C@H]1OC[C@@H](n2ccc(N)nc2=O)O1 (mixture of isomers) [Compound 117, 4-AMINO-1-{2-[1-(1,1- DIMETHYL-PROPOXY)- ETHOXYMETHYL]- [1,3]DIOXOLAN-4-YL}-1H- PYRIMIDIN-2-ONE] | 680 nM | 180 nM | 89000 nM | 494 | 460 nM | 460 nM | – | – | – | – | – | –
Nc1ccn([C@@H]2CO[C@H](COC3CCCCO3)O2)c(=O)n1 (stereo in doubt) [Compound 41, 4-AMINO-1-[2- (TETRAHYDRO-PYRAN-2- YLOXYMETHYL)- [1,3]DIOXOLAN-4-YL]-1H- PYRIMIDIN-2-ONE] | > 100000 nM | 21000 nM | > 100000 nM | 5 | 91000 nM | 40000 nM | – | – | – | – | – | –
Nc1cc[n+]([C@@H]2CO[C@H](COC(c3ccccc3)(c3ccccc3)c3ccccc3)O2)c(=O)[nH]1 (stereo in doubt) [Compound 53, 4-AMINO-1-(2- TRITYLOXYMETHYL- [1,3]DIOXOLAN-4-YL)-1H- PYRIMIDIN-2-ONE] | 10000 nM | 2000 nM | 37000 nM | 19 | 10000 nM | 8900 nM | – | – | – | – | – | –
Nc1ccn([C@@H]2COC(COCOCc3ccccc3)O2)c(=O)n1 (stereo in doubt) [Compound 56, 4-AMINO-1-(2- BENZYLOXYMETHOXYMETHYL- [1,3]DIOXOLAN-4-YL)-1H- PYRIMIDIN-2-ONE] | 25000 nM | 1600 nM | > 100000 nM | 63 | 2000 nM | 7000 nM | – | – | – | – | – | –
Nc1ccn([C@@H]2CO[C@H](COC(=O)CCCCCNCc3ccccc3)O2)c(=O)n1.O=C(O)C(F)(F)F.O=C(O)C(F)(F)F (stereo in doubt) [Compound 83, 6-Benzylamino-hexanoic acid 4-(4-amino-2-oxo-2H-pyrimidin-1-yl)-[1,3]dioxolan-2-ylmethyl ester bis trifluoroacetate salt] | 260 nM | 22 nM | > 100000 nM | 4,545 | – | – | 83 nM | 54 nM | – | – | – | –
CCOC(C)OC[C@H]1OC[C@@H](n2ccc(N)nc2=O)O1 (stereo in doubt) [Compound 91, 4-AMINO-1-[2-(1-ETHOXY- ETHOXYMETHYL)- [1,3]DIOXOLAN-4-YL]-1H- PYRIMIDIN-2-ONE] | 5500 nM | 2800 nM | > 100000 nM | 36 | 1800 nM | 630 nM | – | – | – | – | – | –
CCCCC(CC)C(=O)Nc1ccn([C@@H]2CO[C@H](CO)O2)c(=O)n1 (stereo in doubt) [Compound 99, 2-ETHYL-HEXANOIC ACID [1-(2-HYDROXYMETHYL- [1,3]DIOXOLAN-4-YL)-2- OXO-1,2-DIHYDRO- PYRIMIDIN-4-YL]-AMIDE] | 33000 nM | 5000 nM | > 100000 nM | >20 | 6300 nM | – | – | – | – | – | – | –
CC(=O)OCC1OC2OC(C)(OC[C@H]3OC[C@@H](n4ccc(NC(=O)OCc5ccccc5)nc4=O)O3)OC2C(OC(C)=O)C1OC(C)=O (stereo in doubt) [Compound 148, Acetic acid 6-acetoxy-5-acetoxymethyl-2-[4-(4-benzyloxycarbonylamino-2-oxo-2H-pyrimidin-1-yl)-[1,3]dioxolan-2-ylmethoxy]-2-methyl-tetrahydro-[1,3]dioxolo[4,5-b]pyran-7-yl ester] | 9900 nM | 6300 nM | 24000 nM | 4 | 6300 nM | 36000 nM | – | – | – | – | – | –
CC(=O)OCC1OC2OC(C)(OC[C@H]3OC[C@@H](n4ccc(N)nc4=O)O3)OC2C(OC(C)=O)C1OC(C)=O (stereo in doubt) [Compound 151, Acetic acid 6-acetoxy-5-acetoxymethyl-2-[4-(4-amino-2-oxo-2H-pyrimidin-1-yl)-[1,3]dioxolan-2-ylmethoxy]-2-methyl-tetrahydro-[1,3]dioxolo [4,5-b]pyran-7-yl ester] | 4400 nM | 590 nM | > 100000 nM | >169 | 8300 nM | 9700 nM | – | – | – | – | – | –
CC(CCCCN(Cc1ccccc1)C(=O)OC(C)(C)C)C(=O)Nc1ccn([C@@H]2CO[C@H](CO)O2)c(=O)n1 (stereo in doubt) [Compound 158, Benzyl-{5-[1-(2-hydroxymethyl-[1,3]dioxolan-4-yl)-2-oxo-1,2-dihydro-pyrimidin-4-ylcarbamoyl]-hexyl}-carbamic acid tert-butyl ester] | 3700 nM | 94 nM | 58000 nM | 617 | 40 nM | 630 nM | – | – | – | – | – | –
COC(OC)OC[C@H]1OC[C@@H](n2ccc(N)nc2=O)O1 [Compound 38, 4-AMINO-1-(2- DIMETHOXYMETHOXYMETHYL- [1,3]DIOXOLAN-4-YL)-1H- PYRIMIDIN-2-ONE] | 900 nM | 110 nM | > 100000 nM | 909 | 1000 nM | 340 nM | – | – | – | – | – | –
CCOC(OCC)OC[C@H]1OC[C@@H](n2ccc(N)nc2=O)O1 [Compound 39, 4-AMINO-1-(2- DIETHOXYMETHOXYMETHYL- [1,3]DIOXOLAN-4-YL)-1H- PYRIMIDIN-2-ONE] | 320 nM | 47 nM | > 100000 nM | – | – | 160 nM | – | – | 390 nM | 62 nM | 120 nM | –
Nc1ccn([C@@H]2CO[C@H](COC(=O)Oc3ccccc3)O2)c(=O)n1 [Compound 42, CARBONIC ACID 4-(4- AMINO-2-OXO-2H- PYRIMIDIN-1-YL)- [1,3]DIOXOLAN-2- YLMETHYL ESTER PHENYL ESTER] | 22 nM | 2.2 nM | 82000 nM | – | – | 10 nM | – | – | 26 nM | 2.3 nM | 7 nM | > 100000 nM
Nc1ccn([C@@H]2CO[C@H](COC(=O)OCc3ccccc3)O2)c(=O)n1 [Compound 57, CARBONIC ACID 4-(4- AMINO-2-OXO-2H- PYRIMIDIN-1-YL)- [1,3]DIOXOLAN-2- YLMETHYL ESTER BENZYL ESTER] | 47 nM | 4.8 nM | 32000 nM | – | 19 nM | – | – | – | – | – | – | –
CC(C)OC(=O)OC[C@H]1OC[C@@H](n2ccc(N)nc2=O)O1.O=C(O)C(F)(F)F [Compound 67, CARBONIC ACID 4-(4- AMINO-2-OXO-2H- PYRIMIDIN-1-YL)- [1,3]DIOXOLAN-2- YLMETHYL ESTER ISOPROPYL ESTER TRIFLUOROACETATE SALT] | 400 nM | 180 nM | > 100000 nM | 556 | – | 82 nM | – | – | – | – | – | –
CCCCCCCCCCNC(=O)OC[C@H]1OC[C@@H](n2ccc(N)nc2=O)O1 [Compound 137, DECYL-CARBAMIC ACID 4- (4-AMINO-2-OXO-2H- PYRIMIDIN-1-YL)- [1,3]DIOXOLAN-2- YLMETHYL ESTER] | 18400 nM | 5000 nM | 84000 nM | – | – | – | – | – | 16000 nM | 6500 nM | – | 53000 nM
